The target in one experiment is T1, wild type FGFR-4 (Homo sapiens, UniProt P22455).
T1 construct: purchased Carna Biosciences, Inc
The experiment can be described thus: FGFR-4 wild type assay at Km (Caliper electrophoretic mobility shift). In kind it is biochemical. The following applies: wild type FGFR-4, 400 uM ATP, 25 C, 90 minutes; read-out: INH-FGFR4. How it is done: Biochemical Activity Assessment In order to assess the activity of chemical compounds against the relevant kinase of interest, the Caliper LifeSciences electrophoretic mobility shift technology platform is utilized. Fluorescently labeled substrate peptide is incubated in the presence dosed levels of compounds, a set concentration of kinase and of ATP, so that a reflective proportion of the peptide is phosphorylated. At the end of the reaction, the mix of phosphorylated (product) and non-phosphorylated (substrate) peptides are passed through the microfluidic system of the Caliper LabChip® EZ Reader II, under an applied potential difference. The presence of the phosphate group on the product peptide provides a difference in mass and charge between the product peptide and the substrate peptide, resulting in a separation of the substrate and product pools in the sample. As the pools pass the LEDS within the instrument, these pools are detected and resolved as separate peaks. The ratio between these peaks therefore reflects the activity of the chemical matter at that concentration in that well, under those conditions.
FGFR-4 wild type assay at Km: In each well of a 384-well plate, 0.5 ng/ul of wild type FGFR-4 (Carna Biosciences, Inc.) was incubated in a total of 12.5 ul of buffer (100 mM HEPES pH 7.5, 0.015% Brij 35, 10 mM MgCl2, 1 mM DTT) with 1 uM CSKtide (5-FAM-KKKKEEIYFFFG-NH2) and 400 uM ATP at 25 C for 90 minutes in the presence or absence of a dosed concentration series of compound (1% DMSO final concentration). The reaction was stopped by the addition of 70 ul of Stop buffer (100 mM HEPES pH 7.5, 0.015% Brij 35, 35 mM EDTA and 0.2% of Coating Reagent 3 (Caliper Lifesciences)). The plate was then read on a Caliper LabChip® EZ Reader II (protocol settings: −1.9 psi, upstream voltage −700, downstream voltage −3000, post sample sip 35 s).

For experiment [1], the system named is pMAPK (Thr202/Tyr204) in MDA-MB453 or DMS 114 cells. The experiment can be described thus: Detection of pMAPK (Thr202/Tyr204) using Alpha ELISA (pERK alphaLISA). It is filed as cell-based. The following applies: 1 hr incubation with compound; cell line not given (MDA-MB453 or DMS 114). How it is done:
Detection of pMAPK (Thr202/Tyr204) Using Alpha ELISA
MDA-MB453 or DMS 114 cells were plated in 96-well cell culture plates at a density of 1×10^5 cells or 3×10^4 cells, respectively. Cells were allowed to attach, and growth media was replaced with serum free media. Compounds were added at the indicated concentrations. Following 1 hr incubation in the presence of compound, cells were collected. For the DMS 114 cells, 100 ng/mL FGF2 was added for 10 min prior to cell collection. Cell lysates were prepared and processed according to manufacturer instruction (AlphaScreen® SureFire™ Phospho-ERK 1/2 Kit (Perkin Elmer).
Background: An ELISA detects its analyte on a solid surface through an enzyme-linked reagent.

Here are results for 34 compounds from patent publication US10875837B2, “Inhibitors of the fibroblast growth factor receptor” (BLUEPRINT MEDICINES CORPORATION, priority 2013, dated 2020).

T1 sequence (P22455 22-802): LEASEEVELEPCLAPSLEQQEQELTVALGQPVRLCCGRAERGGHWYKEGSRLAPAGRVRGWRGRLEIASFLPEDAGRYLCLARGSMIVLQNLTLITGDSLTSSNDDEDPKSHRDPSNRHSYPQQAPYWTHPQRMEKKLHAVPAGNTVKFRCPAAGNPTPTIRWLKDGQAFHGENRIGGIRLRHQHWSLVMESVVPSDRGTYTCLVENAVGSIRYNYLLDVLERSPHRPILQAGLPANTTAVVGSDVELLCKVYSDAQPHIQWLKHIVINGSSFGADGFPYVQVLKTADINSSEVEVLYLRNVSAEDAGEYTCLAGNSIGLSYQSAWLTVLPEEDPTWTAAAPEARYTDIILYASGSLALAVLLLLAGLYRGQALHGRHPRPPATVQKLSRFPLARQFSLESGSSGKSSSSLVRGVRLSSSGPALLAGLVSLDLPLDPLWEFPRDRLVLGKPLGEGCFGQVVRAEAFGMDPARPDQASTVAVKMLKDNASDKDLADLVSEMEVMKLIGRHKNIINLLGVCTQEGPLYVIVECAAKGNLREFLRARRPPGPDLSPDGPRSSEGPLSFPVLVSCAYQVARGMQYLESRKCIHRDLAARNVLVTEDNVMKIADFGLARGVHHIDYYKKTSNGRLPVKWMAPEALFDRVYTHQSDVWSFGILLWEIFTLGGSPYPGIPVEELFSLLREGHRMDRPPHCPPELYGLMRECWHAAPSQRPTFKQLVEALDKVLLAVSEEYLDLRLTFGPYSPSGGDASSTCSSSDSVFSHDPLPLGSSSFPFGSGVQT

In the case of `C=CC(=O)N[C@H]1CN(C(=O)CN)C[C@H]1Nc1ncc2cc(-c3c(Cl)c(OC)cc(OC)c3Cl)ccc2n1` (racemic) [Compound 74], the results for the IC50 (on wild type FGFR-4; in experiment [1]) were 10 to 100 nM and 100 to 1000 nM, respectively. In the case of `C=CC(=O)N[C@H]1CN(C(=O)OC(C)(C)C)C[C@H]1Nc1ncc2cc(-c3c(Cl)c(OC)cc(OC)c3Cl)ccc2n1` (racemic) [Compound 90], the IC50 at wild type FGFR-4 lay in the range of 10 to 100 nM; in experiment [1], 100 to 1000 nM. `C=CC(=O)N[C@H]1CCC[C@H]1Nc1ncc2cc(-c3c(Cl)c(OC)cc(OC)c3Cl)ccc2n1` [Compound 24]: the IC50 (at wild type FGFR-4; in experiment [1]) was 10 to 100 nM in each case.

For `C=CC(=O)N[C@@H]1COC[C@@H]1Nc1ncc2cc(-c3c(Cl)c(OC)cc(OC)c3Cl)ccc2n1` [Compound 26], the IC50 on wild type FGFR-4 was in the range of 10 to 100 nM; in experiment [1], 100 to 1000 nM. In the same order, the values of `C=CC(=O)NC1COCC1Nc1ncc2cc(-c3c(Cl)c(OC)cc(OC)c3Cl)ccc2n1` (centres unmarked) [Compound 28] are below 10 nM and 10 to 100 nM.

On to `C=CC(=O)N[C@H]1COC[C@H]1Nc1ncc2cc(-c3c(Cl)c(OC)cc(OC)c3Cl)cnc2n1` [Compound 29], for which the IC50 on wild type FGFR-4 was 10 to 100 nM; in experiment [1], below 10 nM. In the same order, the values of `C=CC(=O)N[C@H]1C[C@@H]2C[C@@H]2[C@H]1Nc1ncc2cc(-c3c(Cl)c(OC)cc(OC)c3Cl)ccc2n1` [Compound 32, N-((1S,2R,3S,5S)-2-((6-(2,6-dichloro-3,5-dimethoxyphenyl)quinazolin-2-yl)amino)bicyclo[3.1.0]hexan-3-yl)acrylamide] are below 10 nM and below 10 nM. In the same order, the values of `C=CC(=O)N[C@H]1CCCC[C@H]1Nc1ncc2cc(-c3c(Cl)c(OC)cc(OC)c3Cl)ccc2n1` [Compound 34, N-((1S,2R)-2-((6-(2,6-dichloro-3,5-dimethoxyphenyl)quinazolin-2-yl)amino)cyclohexyl)acrylamide] are 10 to 100 nM and 10 to 100 nM.

For `C=CC(=O)N[C@H]1CCOC[C@H]1Nc1ncc2cc(-c3c(Cl)c(OC)cc(OC)c3Cl)ccc2n1` [Compound 40, N-((3S,4S)-3-((6-(2,6-dichloro-3,5-dimethoxyphenyl)quinazolin-2-yl)amino)tetrahydro-2H-pyran-4-yl)acrylamide], the IC50 (on wild type FGFR-4; in experiment [1]) was below 10 nM in each case. As for `C=CC(=O)N[C@H]1COCC[C@H]1Nc1ncc2cc(-c3c(Cl)c(OC)cc(OC)c3Cl)ccc2n1` [Compound 41], the IC50 on wild type FGFR-4 was 10 to 100 nM; in experiment [1] it was 100 to 1000 nM.

Regarding `C=CC(=O)N[C@H]1CCOC[C@H]1Nc1ncc2cc(-c3c(Cl)c(OC)cc(OC)c3Cl)cnc2n1` [Compound 44], the IC50 (on wild type FGFR-4; in experiment [1]) was 10 to 100 nM throughout. In the case of `C=CC(=O)N[C@H]1CCC[C@H]1Nc1ncc2cc(-c3c(Cl)c(OC)cc(OC)c3Cl)cc(F)c2n1` [Compound 45], the IC50 (on wild type FGFR-4; in experiment [1]) was 10 to 100 nM in each case.

Turning to `C=CC(=O)N[C@H]1COC[C@H]1Nc1ncc2cc(-c3c(Cl)c(OC)cc(OC)c3Cl)cc(F)c2n1` [Compound 46], the IC50 (at wild type FGFR-4; in experiment [1]) was below 10 nM each time.

With `C=CC(=O)N[C@H]1CCOC[C@H]1Nc1ncc2cc(-c3c(Cl)c(OC)cc(OC)c3Cl)c(F)cc2n1` [Compound 51], the IC50 (at wild type FGFR-4; in experiment [1]) was below 10 nM each time. Turning to `C=CC(=O)N[C@H]1CCOC[C@H]1Nc1ncc2cc(-c3c(Cl)c(OC)cc(OC)c3Cl)cc(F)c2n1` [Compound 52], the IC50 (at wild type FGFR-4; in experiment [1]) was below 10 nM in each case. Regarding `C=CC(=O)N[C@H]1COC[C@H]1Nc1ncc2cc(-c3c(Cl)c(OC)cc(OC)c3Cl)cc(Cl)c2n1` [Compound 54], the IC50 (on wild type FGFR-4; in experiment [1]) was below 10 nM throughout. With `C=CC(=O)N[C@H]1COC[C@H]1Nc1ncc2cc(-c3c(Cl)c(OC)cc(OC)c3Cl)c(Cl)cc2n1` [Compound 55], the IC50 (at wild type FGFR-4; in experiment [1]) was below 10 nM in each case. As to `C=CC(=O)N[C@H]1CN(C(C)=O)C[C@H]1Nc1ncc2cc(-c3c(Cl)c(OC)cc(OC)c3Cl)ccc2n1` [Compound 56, N-((3S,4R)-1-acetyl-4-((6-(2,6-dichloro-3,5-dimethoxyphenyl)quinazolin-2-yl)amino)pyrrolidin-3-yl)acrylamide], the IC50 (on wild type FGFR-4; in experiment [1]) was below 10 nM each time. Consider `C=CC(=O)NC1CN(C(C)=O)CC1Nc1ncc2cc(-c3c(Cl)c(OC)cc(OC)c3Cl)ccc2n1` (centres unmarked) [Compound 58], for which the IC50 at wild type FGFR-4 is below 10 nM; in experiment [1] it was 10 to 100 nM. In the same order, the values of `C=CC(=O)N[C@H]1CCC[C@H]1Nc1ncc2cc(-c3c(Cl)c(OC)cc(OC)c3Cl)c(=O)n(CC)c2n1` [Compound 62, N-((1S,2R)-2-((6-(2,6-dichloro-3,5-dimethoxyphenyl)-8-ethyl-7-oxo-7,8-dihydropyrido[2,3-d]pyrimidin-2-yl)amino)cyclopentyl)acrylamide] are below 10 nM and 10 to 100 nM. In the same order, the values of `C=CC(=O)N[C@H]1CCC[C@H]1Nc1ncc2nc(-c3c(Cl)c(OC)cc(OC)c3Cl)c(=O)n(CC)c2n1` [Compound 63] are 10 to 100 nM and 100 to 1000 nM. Take `C=CC(=O)N[C@H]1CCOC[C@H]1Nc1cc2c(cn1)cc(-c1c(Cl)c(OC)cc(OC)c1Cl)c(=O)n2C` [Compound 64]: the IC50 (on wild type FGFR-4; in experiment [1]) was below 10 nM in each case. In the case of `C=CC(=O)NC1CN(C(=O)CO)CC1Nc1ncc2cc(-c3c(Cl)c(OC)cc(OC)c3Cl)ccc2n1` (centres unmarked) [Compound 75], the IC50 at wild type FGFR-4 was below 10 nM; in experiment [1], 10 to 100 nM. In the same order, the values of `C=CC(=O)N[C@H]1CN(C(=O)CO)C[C@H]1Nc1ncc2cc(-c3c(Cl)c(OC)cc(OC)c3Cl)ccc2n1` [Compound 76] are below 10 nM and 10 to 100 nM. In the same order, the values of `C=CC(=O)N[C@H]1CCCC[C@H]1Nc1ncc2cc(-c3c(Cl)c(OC)cc(OC)c3Cl)c(=O)n(CC)c2n1` [Compound 77] are 10 to 100 nM and 10 to 100 nM. In the same order, the values of `C=CC(=O)N[C@H]1CN(C(=O)C2CC2)C[C@H]1Nc1ncc2cc(-c3c(Cl)c(OC)cc(OC)c3Cl)ccc2n1` [Compound 80] are below 10 nM and below 10 nM.

For the compound `C=CC(=O)N[C@H]1C[C@@H](C(=O)N(C)C)C[C@H]1Nc1ncc2cc(-c3c(Cl)c(OC)cc(OC)c3Cl)ccc2n1` [Compound 81, (1 S,3S,4R)-3-acrylamido-4-((6-(2,6-dichloro-3,5-dimethoxyphenyl)quinazolin-2-yl)amino)-N,N-dimethylcyclopentanecarboxamide], the IC50 on wild type FGFR-4 was in the range of 10 to 100 nM. Take `C=CC(=O)N[C@H]1C[C@H](C(=O)N(C)C)C[C@H]1Nc1ncc2cc(-c3c(Cl)c(OC)cc(OC)c3Cl)ccc2n1` [Compound 82, (1R,3S,4R)-3-acrylamido-4-((6-(2,6-dichloro-3,5-dimethoxyphenyl)quinazolin-2-yl)amino)-N,N-dimethylcyclopentane-1-carboxamide]: the IC50 on wild type FGFR-4 was above 1000 nM. With `C=CC(=O)N[C@H]1CN(C(=O)NCC)C[C@H]1Nc1ncc2cc(-c3c(Cl)c(OC)cc(OC)c3Cl)ccc2n1` [Compound 83, (3S,4R)-3-acrylamido-4-((6-(2,6-dichloro-3,5-dimethoxyphenyl)quinazolin-2-yl)amino)-N-ethylpyrrolidine-1-carboxamide], the IC50 (at wild type FGFR-4; in experiment [1]) was below 10 nM in each case. `C=CC(=O)N[C@H]1CN(C(=O)OCC)C[C@H]1Nc1ncc2cc(-c3c(Cl)c(OC)cc(OC)c3Cl)ccc2n1` [Compound 84]: the values for the IC50 (at wild type FGFR-4; in experiment [1]) were below 10 nM and 10 to 100 nM, respectively. In the same order, the values of `C=CC(=O)NC1CN(C(=O)COC)CC1Nc1ncc2cc(-c3c(Cl)c(OC)cc(OC)c3Cl)ccc2n1` (centres unmarked) [Compound 85] are below 10 nM and 10 to 100 nM. In the same order, the values of `C=CC(=O)N[C@H]1CN(C(=O)COC)C[C@H]1Nc1ncc2cc(-c3c(Cl)c(OC)cc(OC)c3Cl)ccc2n1` [Compound 86] are below 10 nM and below 10 nM.

As for `C=CC(=O)NC1CN(C(=O)CN(C)C)CC1Nc1ncc2cc(-c3c(Cl)c(OC)cc(OC)c3Cl)ccc2n1` (centres unmarked) [Compound 88], the IC50 at wild type FGFR-4 is below 10 nM; in experiment [1], 10 to 100 nM. Turning to `C=CC(=O)N[C@H]1CCN(C(=O)OC(C)(C)C)C[C@H]1Nc1ncc2cc(-c3c(Cl)c(OC)cc(OC)c3Cl)ccc2n1` [Compound 92], on wild type FGFR-4, the IC50 is above 1000 nM.
